US20240408114A1, “METHODS FOR PREVENTING AND TREATING ACUTE KIDNEY INJURY” (The Johns Hopkins University, priority 2021, published 2024)

Tests used:
kidney T cells [1] = test: T cells from post-cisplatin AKI kidneys, spectral flow cytometry; type: in vivo, mouse
Description: Given the significant protective outcomes in ischemic AKI, we subsequently tested the effect of glutamine blockade on a nephrotoxic AKI model, which is another common etiology of clinical AKI. After pretreatment with JHU083 or vehicle, 25 mg/kg of cisplatin was injected intraperitoneally. T cells were isolated and studied after 72 h after cisplatin treatment (FIG. 16A).
KMNCs were isolated according to our previously described Percoll density gradient protocol. Ascon et al., 2006. Briefly, decapsulated kidneys were immersed and incubated in collagenase D (2 mg/mL; Sigma-Aldrich) solution for 30 min at 37° C. Samples were strained through 70 µm cell strainer (BD Bioscience, Franklin Lakes, NJ), washed, and resuspended in 40% Percoll (GE Healthcare, Chicago, IL) followed by gentle overlaying onto 80% Percoll. After centrifugation at 1,500 g for 30 min in brake off mode at room temperature, KMNCs were collected from interface between 40% and 80% Percoll. Spleens were strained through 40 µm cell strainer (BD Bioscience) and incubated with ammonium-chloride-potassium lysis buffer (Quality Biological, Gaithersburg, MD) for 3 min. Collected cells were washed and resuspended with Roswell Park Memorial Institute (RPMI) 1640 media (Thermo Fisher Scientific, Waltham, MA) containing 5% fetal bovine serum (FBS, Thermo Fisher Scientific). Cells were counted on hemocytometer using trypan blue exclusion under a microscope.
Cells were washed once with phosphate buffered saline (PBS) and stained with viability dye Zombie NIR Fixable Viability (BioLegend, San Diego, CA) for 15 min at room temperature. After washing with Cell Staining Buffer (BioLegend), cells were preincubated with anti-CD16/CD32 Fc receptor blocking antibody (S17011E, BioLegend) for 15 min to prevent nonspecific antibody binding. Subsequently, surface staining was performed in 50 μL of BD horizon™ Brilliant Stain buffer and surface staining antibody cocktail for 30 min at 4° C.: Pacific blue anti-CD44 (IM7, BioLegend), BV510 anti-CD8 (53-6.7, BioLegend), BV570 anti-CD45 (30-F11, BioLegend), BV605 anti-CD69 (H1.2F3, BioLegend), BV650 anti-NK1.1 (PK136, BioLegend), BV711 anti-PD1 (29F.1A12, BioLegend), BV785 anti-TCRβ (H57-597, BioLegend), PE-Cy5.5 anti-CD25 (PC61.5, Thermo Fisher Scientific), APC-R700 anti-CD62L (MEL-14, BD Bioscience), and APC-Fire810 anti-CD4 (GK1.5, BioLegend). Cells were fixed and permeabilized with Foxp3/Transcription Factor Staining kit (Thermo Fisher Scientific) for 30 min at room temperature and washed with permeabilization/wash buffer (Thermo Fisher Scientific). Intracellular staining was conducted in 50 μL of permeabilization/wash buffer with intracellular staining antibody cocktail for 45 min at room temperature: BV421 anti-Ki67 (16A8, BioLegend), Alexa Fluor 488 anti-CPT1a (8F6AE9, Abcam, Cambridge, UK), Alexa Fluor 532 anti-VDAC1 (20B12AF2, Abcam), PerCP-efluor 710 anti-FoxP3 (FJK-16S, Thermo Fisher Scientific), PE anti-GLUT1 (EPR3915, Abcam), Alexa Fluor 594 anti-pS6 (D68F8, Cell Signaling, Danvers, MA), PE-Cy5 anti-HKII (EPR20839, Abcam), PE-Cy7 anti-H3K27me3 (C36B11, Cell Signaling), and Alexa Fluor 647 anti-Tomm20 (EPR15581-54, Abcam). After staining, cells were washed with permeabilization/wash buffer then resuspended in Cell Staining Buffer. Samples were analyzed by 4-laser Aurora spectral flow cytometer (Cytek, Fremont, CA).
Glutamine antagonist, JHU083 was synthesized as previously described, Rais et al., 2016, and dissolved in 50 mM […] 4-(2-hydroxyethyl)-1-piperazineethanesulfonic acid (HEPES) buffered 0.9% saline. Aliquot stocks were stored at −80° C. and thawed right before injection. Before the IRI surgery or cisplatin injection, mice were administered 1.83 mg/kg JHU083 (equivalent to 1 mg/kg DON) or vehicle (50 mM HEPES buffered 0.9% saline) every other day via intraperitoneal injection. Following 4 consecutive dosages, mice underwent IRI surgery or cisplatin injection. […]

[2] = 1.83 mg/kg every other day i.p.; even with a longer duration of treatment; cited from earlier work
kidney T cells [3] = test: In vitro kidney T cell proliferation (CFSE) under hypoxia/reoxygenation; type: cell-based, mouse; settings: 1 μM JHU083, hypoxia followed by reoxygenation
Description: Glutamine blocking effect on the kidney T cell proliferation was assessed with carboxyfluoroscein succinimidyl ester (CFSE) analysis. FACS sorted kidney T cells (CD45^+, TCR αβ^+) were cultured with media containing 1 μM JHU083 or vehicle and underwent hypoxia followed by reoxygenation.
Kidney T cells were isolated using FACS. Briefly, single-cell suspension of KMNCs was preincubated with anti-CD16/CD32 Fc block (S17011E, BioLegend) stained in Cell Staining Buffer (BioLegend) with fluorochrome-labeled antibodies: APC-Cy7 anti-CD45 (30-F11) and BV421 anti-TCRβ ([…]) from BioLegend. Live Dead Aqua (Thermo Fisher Scientific) was stained for viability assay. […] TCRβ^+ cells were sorted with FACSAria II Cell Sorter (BD Bioscience). Splenic T cells were isolated from single cells suspension of spleens using a T Cell Isolation Kit II (Miltenyi Biotec, North Rhine-Westphalia, Germany) according to the manufacturer's guideline.
48-well flat-bottom plates were coated with 5-μg/mL anti-CD3 in PBS and incubated at 4° C. overnight. Anti-CD3 coated plates were washed with PBS, and isolated cells were cultured in RPMI 1640 GlutaMAX (Thermo Fisher Scientific) supplemented with 10% FBS (Thermo Fisher Scientific), […] HEPES buffer (Thermo Fisher Scientific), 100-μM non-essential amino acid solution (Sigma-Aldrich), and 55-μM 2-mercaptoethanol (Sigma-Aldrich)±JHU083. […]

[4] = post-cisplatin AKI kidneys, vehicle 21.4±2.7, P=0.001

## CCOC(=O)[C@H](CCC(=O)C=[N+]=[N-])NC(=O)[C@@H](N)CC(C)C [JHU083]
Kidney T cells [1]; cisplatin AKI, FIG. 17C
  CD69 expression in CD4+, CD8+, and DN T cells: reduced
Kidney T cells [1]; [4]
  CD69+ among kidney CD8+ T cells: 9.8±1.5%
  Ki67+ among kidney CD8+ T cells: 9.8±1.5%
Kidney T cells [1]; post-cisplatin AKI kidneys, vehicle 37.0±2.9, P=0.003
  Ki67+ among kidney CD4+ T cells: 25.4±1.8
Kidney T cells [1]; post-cisplatin AKI kidneys, vehicle 37.0±2.9, P=0.014
  CD69+ among kidney CD4+ T cells: 25.4±1.8%
Kidney T cells [1]; post-cisplatin AKI kidneys, vehicle 37.5±3.2
  CD62L+ among kidney CD4+ T cells: 52.5±3.0%
Kidney T cells [1]; post-cisplatin AKI kidneys, vehicle 43.3±3.3, P<0.001
  CD44+ among kidney CD8+ T cells: 26.4±2.3%
Kidney T cells [1]; post-cisplatin AKI kidneys, vehicle 48.9±4.2, P<0.001
  CD62L+ among kidney CD8+ T cells: 76.0±2.3%
Kidney T cells [1]; post-cisplatin AKI kidneys, vehicle 50.2±3.4, P=0.037
  CD44+ among kidney CD4+ T cells: 40.9±2.4%
[2]
  tolerability of dosage regimen: tolerable without significant toxicity
Kidney T cells [3]
  cell numbers on day 3: significantly lower
Kidney T cells [3]; P<0.001
  proportion of undivided cells (CFSE): significantly higher proportion of undivided cells
